Assay [1] deals with C57/Black female mice. Description: Glucose tolerance test with purified AT alone (Example 4). The assay is classed as in vivo. The conditions noted are these: mice fasted 24 h; for Glucose level: purified AT 1200 μg i.p. 24 h before glucose 3 g/kg i.p., mean ± S.D., n=4. How it is done: C57/Black female mice, weighing 22-25 g were fasted for 24 hours. Four animals were used for each of two groups. The first group received intraperitoneal injections of 1200 μg purified AT, i.e. AT purified by the procedure of Example 1. Exactly 24 hours after the AT was administered to the first group, glucose (3 g/kg) was injected intraperitoneally into mice in both groups. Blood samples were immediately measured with the fast Glucose C test (Wako Chemicals Inc. Richmond, Va., USA). The experiment was repeated a second time.
The data presented for each experiment are the mean ±S.D. of four determinations, one with each animal.

Assay [2] concerns C57/Black female mice. Description: Glucose tolerance test with insulin and purified AT (Example 3). The assay is classed as in vivo. The conditions noted are these: highly purified AT 1.2 mg/mouse i.p. 24 h prior to insulin; glucose 3 g/kg i.p. How it is done:
C57/Black female mice weighing 23-25 g were fasted for 16 hours. Five animals were used for each of the three treatment groups. The first treatment group received intraperitoneal injections of 1200 μg purified AT, i.e. AT purified by the procedure of Example 1. Exactly 23 hours and 45 minutes after the AT was administered to the first treatment group, the animals in the first and second treatment group received 0.5 I.U. of insulin. Exactly 15 minutes after the insulin was administered (i.e., 24 hours after AT was administered to the first treatment group), glucose (3 g/kg) was injected intraperitoneally into the first, second and third treatment group. Blood samples were immediately measured with the fast Glucose C test (Wako Chemicals Inc. Richmond, Va., USA). The data presented are the mean ±S.D. of five determinations, one with each animal.

[3] abbreviates: highly purified AT 1200 μg i.p. 24 h before glucose 3 g/kg i.p.

We go through one substance from patent US20080279843A1, “Method For Improving Insulin Sensitivity By Administering an Inhibitor of Antitrypsin” (Essential SkinCare, LLC, priority 2003, published 2008).

As to α1-antitrypsin [AT], the Glucose level in the assay with C57/Black female mice [1] (Experiment 1, 0 min) was 2.3 ± 0.3 mM; in the assay on C57/Black female mice [1] (Experiment 1, 30 min), 8.5 ± 0.6 mM; in the assay on C57/Black female mice [1] (Experiment 1, 60 min) it was 7.1 ± 0.5 mM; in the assay with C57/Black female mice [1] (Experiment 1, 120 min) it was 6.1 ± 0.4 mM; in the assay on C57/Black female mice [1] (Experiment 1, 180 min), 4.7 ± 0.5 mM; in the assay on C57/Black female mice [1] (Experiment 2, 0 min), 2.7 ± 0.3 mM. The Glucose level in the assay on C57/Black female mice [1] (Experiment 2, 30 min) was 7.9 ± 0.3 mM; with C57/Black female mice [1] (Experiment 2, 60 min), 6.5 ± 0.5 mM; with C57/Black female mice [1] (Experiment 2, 120 min), 5.9 ± 0.4 mM; with C57/Black female mice [1] (Experiment 2, 180 min), 4.5 ± 0.4 mM. Also, in the assay on C57/Black female mice [1] (setting [3]), the “Effect of AT on blood glucose level in the first 60 min after glucose” value is “no major effects in the first 60 min”. The “Effect of AT on return of blood glucose level to near-normal level during the next 120 min” value with C57/Black female mice [1] (setting [3]) is reported as “clearly delayed return of blood glucose level to near-normal level”. Also, in the assay on C57/Black female mice [2], the “Effect of AT on the action of insulin on blood glucose level” value is “blocked the action of insulin”.
